Read-outs that look alike come from different tables or passages of the source. Marks after values point to notes of the source that are not given here.
Experiments:
[1] = Single dose pharmacokinetic study in Sprague-Dawley rats; type: in vivo; conditions: male, rat
Description: Six- to eight-week old male Sprague-Dawley rats were administered a single bolus dose (5 mg/kg of docetaxel) of docetaxel encapsulated in nanoparticles or conventional docetaxel via a tail vein. The dose groups consisted of six rats each. Blood was drawn at 0.083, 0.5, 1, 2, 3, 4, 6, and 24 hours post-dosing and processed to plasma. The concentration of total docetaxel in plasma was measured by a liquid chromatography-mass spectrometry (LC-MS) method following extraction with methyl tert-butyl ether (MTBE).

[2] = Tumor docetaxel concentration after a single dose in human tumor xenograft model (LNCaP); type: in vivo, SCID mice; conditions: male, SCID, mouse
Description: Male severe combined immunodeficiency (SCID) mice were subcutaneously inoculated with human LNCaP prostate cancer cells. Three to four weeks after inoculation, the mice were assigned to different treatment groups such that the average tumor volume in each group was 300 mm^3. At this time, a single intravenous (IV) dose of 50 mg/kg docetaxel was administered as either docetaxel encapsulated in nanoparticles or conventional docetaxel. The test subjects were sacrificed 2 hour or 12 hour post-dose. The tumors from each group were excised and assayed for docetaxel using liquid chromatography-mass spectrometry (LC-MS).

[3] = system: human LNCaP prostate cancer cells; assay: Anti-tumor activity after repeated doses in human tumor xenograft model (LNCaP); type: in vivo, SCID mice; conditions: Q2D for four doses, eight day holiday, another four doses; FIG. 7
Description: Male severe combined immunodeficiency (SCID) mice were subcutaneously inoculated with human LNCaP prostate cancer cells. Three to four weeks after inoculation, the mice were assigned to different treatment groups such that the average tumor volume in each group was 250 mm^3. Subsequently, the mice were treated every other day (Q2D) for four doses, with an eight day holiday, followed by another four doses at the Q2D schedule.

[4] = Acute dose range finding study in Sprague-Dawley rats; type: in vivo; conditions: 7 days
Description: Sixty Sprague-Dawley rats (30/sex) were assigned to 10 dose groups (3 rats/sex/group) and were administered a single dose of either docetaxel encapsulated in nanoparticles (5.7, 7.5, 10, 15 or 30 mg/kg body weight) or conventional docetaxel (5.7, 7.5, 10, 15 or 30 mg/kg body weight).

MX-1 breast tumors = assay: Tumor accumulation of docetaxel nanoparticles in MX-1 breast tumors; type: in vivo, mice; conditions: 10 mg/kg, 24 hours after injection, LC/MS/MS
Description: Mice were then injected with 10 mg/kg of the test article, then euthanized 24 hours later and the tumors were removed and analyzed for docetaxel content using LC/MS/MS. Results are depicted in FIG. 12.

[5] = Pharmacokinetics of docetaxel nanoparticles in primates; type: in vivo, non human primates; parameters: Cmax/D / AUC/D: unit not given beside the values; conditions: for AUC / Cl / Vz / half-life / Cmax: 30 minute IV infusion; for half-life: in vivo
Description: 1 male and 1 female were used per dose group. The dosing day was 1 day and the formulations were administered by 30 minute IV infusion at 25 mg/m^2 docetaxel or 50 mg/m^2 docetaxel (animals were randomized and then dosed with 50 mg/m2 on day 29 and PK, hematology and clinical chemistry were measured for 21 days). At the end of the study, PK, hematology and clinical chemistry collected over a 21 day period were assessed. FIG. 12 depicts the results of male (M) and female (F) PNP.

[6] = 5 mg/kg, cited from earlier work
[7] = Tissue distribution of radioactivity in rats after IV administration; type: in vivo, Sprague-Dawley rats
Description: Six- to eight-week old male Sprague-Dawley rats were administered a single bolus intravenous dose of one of the following: (1) docetaxel encapsulated in nanoparticles in which the ligand of the PLA-PEG-lys(urea)glu targeting polymer was ^14C-labeled, (2) docetaxel encapsulated in nanoparticles in which the encapsulated docetaxel was ^14C-labeled, (3) ^14C-labeled conventional docetaxel.
Blood was drawn at 1, 3, 6, 12, and 24 hours post-dosing and processed to plasma. Immediately following blood collection, the rats were euthanized by CO2 asphyxiation and tissues were immediately collected, blotted, weighed, and frozen on dry ice. Tissue samples were stored frozen (approximately −70° C.) until analysis for radioactivity by liquid scintillation (LS) counting.

[8] = plasma, 5 mg/kg single IV bolus

## CC(=O)O[C@@]12CO[C@@H]1C[C@H](O)[C@@]1(C)C(=O)[C@H](O)C3=C(C)[C@@H](OC(=O)[C@H](O)[C@@H](NC(=O)OC(C)(C)C)c4ccccc4)C[C@@](O)([C@@H](OC(=O)c4ccccc4)[C@H]21)C3(C)C [Conventional Docetaxel, docetaxel]
[1]; 5 mg/kg single IV bolus, total docetaxel in plasma
  Cmax: 600 ng/mL
[1]; [8]
  AUC(0-inf): 623 ng·h/mL
  clearance: 38.8 mL/min/kg
[1]; plasma, 5 mg/kg single IV bolus, tmax equals the first sampling time
  tmax: 5 min
[1]; plasma, iv, 5 mg/kg
  half-life: 4.4 h
[2]; 2 h after single IV dose of 50 mg/kg docetaxel
  concentration at 2 h: 12900 ± 7900 ng/g
[2]; 12 h after single IV dose of 50 mg/kg docetaxel
  concentration at 12 h: 3600 ± 2100 ng/g
[3]
  effect on tumor volume: appreciable reduction in tumor volume
[4]; 5.7-30 mg/kg single dose
  survival to scheduled necropsy: All test subjects survived
[4]; female, Sprague-Dawley, rat, in vivo, 10 mg/kg
  piloerection, female rats affected: 1/9
[4]; male, Sprague-Dawley, rat, in vivo, 10 mg/kg
  piloerection, male rats affected: 5/9
MX-1 breast tumors
  percent of injected dose in the tumor: 3%
[5]; 25 mg/m2, F
  AUC/D: 109
  Cmax/D: 23.8
  AUC: 2714 ng·h/mL
  Cl: 9213 mL/hr/m2
  Vz: 412186 mL/m2
[5]; 25 mg/m2, M
  AUC/D: 102
  Cmax/D: 14.6
  Cl: 9794 mL/hr/m2
  Vz: 253783 mL/m2
[5]; 50 mg/m2, F
  AUC/D: 72
  Cmax/D: 16.7
  AUC: 3599 ng·h/mL
  Cl: 13893 mL/hr/m2
  Vz: 788340 mL/m2
[5]; 50 mg/m2, M
  AUC/D: 76.5
  Cmax/D: 24.2
  Cl: 13073 mL/hr/m2
  Vz: 743682 mL/m2
[5]; female, monkey, 25 mg/m2, F
  half-life: 31 h
[5]; female, monkey, 50 mg/m2, F
  half-life: 39 h
[5]; female, monkey, plasma, 25 mg/m2, F
  Cmax: 596 ng/mL
[5]; female, monkey, plasma, 50 mg/m2, F
  Cmax: 835 ng/mL
[5]; male, monkey, 25 mg/m2, M
  half-life: 18 h
[5]; male, monkey, 50 mg/m2, M
  half-life: 39 h
[5]; male, monkey, plasma, 25 mg/m2, M
  Cmax: 364 ng/mL
[5]; male, monkey, plasma, 25 mg/m2, M, read-out: AUC
  AUC: 2550 ng·h/mL
[5]; male, monkey, plasma, 50 mg/m2, M
  Cmax: 1210 ng/mL
[5]; male, monkey, plasma, 50 mg/m2, M, read-out: AUC
  AUC: 3280 ng·h/mL
[6]
  AUC0-∞: 910 ng·h/mL
  CL: 91.7 mL/min/kg
  Cmax: 4,100 ng/mL
[6]; study duration was 6 hours
  t1/2: 0.8^b h
[6]; tmax equals the first sampling time
  tmax: 2 min

## CC(=O)O[C@@]12CO[C@@H]1C[C@H](O)[C@@]1(C)C(=O)[C@H](O)C3=C(C)[C@@H](OC(=O)[C@H](O)[C@@H](NC(=O)OC(C)(C)C)c4ccccc4)C[C@@](O)([C@@H](OC(=O)c4ccccc4)[C@H]21)C3(C)C [Conventional ^14C-Docetaxel, docetaxel]
[7]; 1 h after IV administration
  Radioactivity in Bone Marrow: 97 ± 4.2 nCi/g
  Radioactivity in Heart: 71 ± 2.5 nCi/g
  Radioactivity in Large Intestine: 54 ± 3.6 nCi/g
  Radioactivity in Liver: 78 ± 15 nCi/g
  Radioactivity in Lungs: 82 ± 9.6 nCi/g
  Radioactivity in Plasma: 4.9 ± 0.4 nCi/mL
  Radioactivity in Small Intestine: 517 ± 99 nCi/g
  Radioactivity in Spleen: 100 ± 9.4 nCi/g
[7]; 3 h after IV administration
  Radioactivity in Bone Marrow: 83 ± 1.0 nCi/g
  Radioactivity in Heart: 39 ± 1.5 nCi/g
  Radioactivity in Large Intestine: 166 ± 37 nCi/g
  Radioactivity in Liver: 49 ± 7.3 nCi/g
  Radioactivity in Lungs: 66 ± 0.7 nCi/g
  Radioactivity in Plasma: 1.9 ± 0.2 nCi/mL
  Radioactivity in Small Intestine: 122 ± 43 nCi/g
  Radioactivity in Spleen: 81 ± 7.5 nCi/g
[7]; 6 h after IV administration
  Radioactivity in Bone Marrow: 78 ± 1.9 nCi/g
  Radioactivity in Heart: 33 ± 1.3 nCi/g
  Radioactivity in Large Intestine: 185 ± 82 nCi/g
  Radioactivity in Liver: 49 ± 11 nCi/g
  Radioactivity in Lungs: 993 ± 1605 nCi/g
  Radioactivity in Plasma: 1.6 ± 0.5 nCi/mL
  Radioactivity in Small Intestine: 62 ± 5.2 nCi/g
  Radioactivity in Spleen: 82 ± 4.6 nCi/g
[7]; 12 h after IV administration
  Radioactivity in Bone Marrow: 62 ± 9.4 nCi/g
  Radioactivity in Heart: 28 ± 1.7 nCi/g
  Radioactivity in Large Intestine: 83 ± 18 nCi/g
  Radioactivity in Liver: 55 ± 7.4 nCi/g
  Radioactivity in Lungs: 1438 ± 1218 nCi/g
  Radioactivity in Plasma: 0.8 ± 0.2 nCi/mL
  Radioactivity in Small Intestine: 41 ± 4.9 nCi/g
  Radioactivity in Spleen: 77 ± 11 nCi/g
[7]; 24 h after IV administration
  Radioactivity in Bone Marrow: 41 ± 6.8 nCi/g
  Radioactivity in Heart: 24 ± 2.6 nCi/g
  Radioactivity in Large Intestine: 48 ± 34 nCi/g
  Radioactivity in Liver: 43 ± 4.0 nCi/g
  Radioactivity in Lungs: 962 ± 99 nCi/g
  Radioactivity in Plasma: 0.6 ± 0.1 nCi/mL
  Radioactivity in Small Intestine: 47 ± 19 nCi/g
  Radioactivity in Spleen: 85 ± 8.6 nCi/g

Reference: US9308179B2, “Long circulating nanoparticles for sustained release of therapeutic agents” (BIND Therapeutics, Inc., priority 2008, dated 2016)
